Reference: patent publication US20230038480A1, “SYSTEM FOR PRODUCITON OF HIGH YIELD OF RECOMBINANT PROTEINS” (UNIVERSITY OF MARYLAND, COLLEGE PARK, priority 2021, published 2023)

Assays:
[1] = system: E. coli pAHL-GMCSF; assay: AHL-induced porin formation and release of dsRedExpressII from E. coli pAHL-GMCSF; type: cell-based, Escherichia coli; conditions: about
Protocol: Protein secretion analysis. The target proteins DsRedExpress2 and GMCSF were analyzed. The supernatants of sample aliquots were recovered after centrifugation (6000 g, 2 min) to separate bacteria and subdivided fluorescence analysis (stored chilled) or immunoassaying (stored frozen). The relative fluorescence intensity of samples was measured using a BioTek Synergy platereader to determine DsRedExpress2 levels; additional quantification to correlate fluorescence to protein concentration was performed using a Bioanalyzer 2100 (Agilent Technologies, Santa Clara, Calif.). The His-tagged GMCSF peptide was quantified using a His Tag ELISA Detection Kit (GenScript) according to the provided protocol and 5-10 fold dilutions of frozen samples.

[2] = system: E. coli
Protocol: To visualize electrode-immobilized bacteria, cells were fluorescently stained using a Live/Dead Baclight Bacterial Viability Kit (Molecular Probes). Syto9 and propidium iodide (PI), were used alone or in combination. In each case, the reagents were diluted between 667 and 1000-fold in PBS, then applied to the cell-covered surfaces and incubated in the dark for 45 min, undisturbed, to stain immobilized cells. The, chips were the rinsed and stored in PBS. […] To quantify viability of cells bound to electrode chips, Syto9 and PI were applied in combination, followed by the fixative solution, with PBS rinsing in between steps. In this case, both green and red fluorescence images were captured. […] The fluorescence images were converted to 8-bit, consistently thresholded, and the cell areas were calculated using ImageJ (NIH). […] After a PBS rinse, cell fluorescence was read on the flow cytometer or imaged by the fluorescence microscope.
To quantify cell growth in the presence of peroxide, E. coli T7Express cells with the pOxyRS-sfGFP-laa and pBla-GBP3-AIDA plasmids were cultured overnight as described above. […] A Bioscreen C machine (Growth Curves USA) was set up at 37° C., high shaking, with 400 μl per well, and recorded OD600 measurements every 15 minutes, using a Growth Rates program to calculate lag and doubling time. […]

[3] = system: OxyR / PoxyS promoter

With `CCCCCCCCCC(=O)CC(=O)N[C@H]1CCOC1=O` [AHL, N-3-oxo-dodecanoyl-L-Homoserine lactone] the “inducer concentration in solution” value [1] was 100-500 nM of AHL.

With `OO` [peroxide, hydrogen peroxide] the “peroxide tolerated with negligible effect on cell viability” value [2] was “up to 100 μM”, the benign induction range ([2]; in agreement with previous reports) was 0 to 100 µM and the “induction threshold required to achieve saturated protein expression” value [3] was 25 µM.
